Data: ChEMBL document CHEMBL5046270, “A Selective and Orally Bioavailable Quinoline-6-Carbonitrile-Based Inhibitor of CDK8/19 Mediator Kinase with Tumor-Enriched Pharmacokinetics” (J Med Chem, 2022)

What was measured:
[1] = Downregulation of CDK8/19 in HEK293 cells assessed as mRNA expression level in KCTD12 gene at 1 uM for 3 hrs pretreatment and measured after 24 hr post wash-off by qt-PCR analysis; type: functional; details: Homo sapiens, time 27 hrs
[2] = Elimination rate constant in tumor of BALB/c mouse xenografted with mouse CT26 cells at 100 mg/kg, po by LC-MS/MS analysis; type: ADME, organism-based, Neoplasm
[3] = target: CDK8/Cyclin C (Homo sapiens) (UniProt P49336+P24863); assay: Binding affinity to kinase tracer 236 binding to His tagged recombinant human CDK8/cyclinC assessed as rate constant (kon) by TR FRET based assay; type: protein-complex assay
[4] = Tmax in tumor of BALB/c mouse xenografted with mouse CT26 cells at 2.5 mg/kg, iv by LC-MS/MS analysis; type: ADME, organism-based, Neoplasm
[5] = Tmax in tumor of BALB/c mouse xenografted with mouse CT26 cells at 100 mg/kg, po by LC-MS/MS analysis; type: ADME, organism-based, Neoplasm
[6] = Oral bioavailability in tumor of BALB/c mouse xenografted with mouse CT26 cells at 100 mg/kg by LC-MS/MS; type: ADME, organism-based, Neoplasm
[7] = target: Cyclin-dependent kinase 8 (Homo sapiens) (UniProt P49336); assay: Inhibition of human CDK8 at 2 uM by competition binding assay relative to control; values are per cent of control
[8] = Metabolic stability in human hepatocyte assessed as intrinsic clearance at 2 uM measured per 10^6 by LC-MS/MS analysis; type: ADME, cell-based; details: hepatocytes
[9] = Drug accumulation in lung of BALB/c mouse bearing CT26 tumor model at 100 mg/kg, po for 7 days by LC-MS/MS analysis; type: ADME, organism-based; details: in vivo, 168 h, time 7 day
[10] = Toxicity in BALB/c mouse bearing CT26 tumor model assessed as change in body weight at 100 mg/kg, po qd for 7 days by LC-MS/MS analysis; type: organism-based; details: in vivo, 168 h, time 7 day
CDK8/Cyclin C = CDK8/Cyclin C (Homo sapiens, UniProt P49336); assay: Inhibition of kinase tracer 236 binding to His tagged recombinant human CDK8/cyclin C incubated for 60 min FRET based LanthaScreen Eu-Kinase binding assay; type: protein-complex assay
Chain of CDK8/Cyclin C (P49336 whole entry): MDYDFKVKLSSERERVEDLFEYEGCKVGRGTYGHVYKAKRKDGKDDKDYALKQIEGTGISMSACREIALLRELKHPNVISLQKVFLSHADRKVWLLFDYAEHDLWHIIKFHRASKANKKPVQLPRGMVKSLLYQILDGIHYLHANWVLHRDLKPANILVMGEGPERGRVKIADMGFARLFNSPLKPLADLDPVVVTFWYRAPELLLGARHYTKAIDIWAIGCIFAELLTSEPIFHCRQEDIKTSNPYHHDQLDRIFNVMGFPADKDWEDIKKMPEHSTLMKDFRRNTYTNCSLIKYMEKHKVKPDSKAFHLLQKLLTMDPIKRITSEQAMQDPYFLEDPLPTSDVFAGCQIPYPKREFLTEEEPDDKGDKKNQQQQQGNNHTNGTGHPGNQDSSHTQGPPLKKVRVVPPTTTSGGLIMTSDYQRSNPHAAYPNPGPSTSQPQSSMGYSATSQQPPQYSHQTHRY
Chain of CDK8/Cyclin C (P24863 whole entry, further chain): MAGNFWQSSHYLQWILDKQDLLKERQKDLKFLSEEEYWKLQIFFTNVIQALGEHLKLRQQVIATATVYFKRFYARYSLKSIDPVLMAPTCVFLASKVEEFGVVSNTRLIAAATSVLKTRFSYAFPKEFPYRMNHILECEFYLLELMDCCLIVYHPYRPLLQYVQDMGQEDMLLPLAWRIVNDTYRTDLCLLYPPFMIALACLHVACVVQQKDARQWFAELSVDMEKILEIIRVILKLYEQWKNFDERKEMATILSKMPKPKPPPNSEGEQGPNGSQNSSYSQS

Chain of Cyclin-dependent kinase 8 (Homo sapiens) (P49336 whole entry): as the sequence (P49336 whole entry) above

k el [2]: 2.78e-05 s⁻¹
K [3]: 8.78 10^6/M/s
Tmax [4]: 0.58 h
Tmax [5]: 12 h
bioavailability [6]: 34.6%
residual activity [7]: 1%
CLH [8]: 0.00639 mL/min
Drug uptake [9]: Active
IC50 (CDK8/Cyclin C): 3.6 nM
SMILES: CN1CCN(C(=O)c2ccc3cc(CCNc4ccnc5ccc(C#N)cc45)ccc3c2)CC1
inhibition at 1 µM [1]: 30%
Activity [10]: Non-Toxic
